Results: the supplement of paper PMC13380429

Columns and labels:
Conditions in all cases: 72 h
Calu-3 [1] = assay: cell viability relative to DMSO; higher = less toxic
Vero E6 [2] = assay: as above
HepG2 [3] = assay: as above
Caco-2 [4] = assay: as above
U2OS [5] = assay: as above
Calu-3 [6] = assay: relative viability EC50 (midpoint between 100% and the lowest measured viability); higher = less toxic
Vero E6 [7] = assay: as above
HepG2 [8] = assay: as above
Caco-2 [9] = assay: as above
U2OS [10] = assay: as above
Calu-3 [11] = assay: drug sensitivity score (DSS) for viability; higher = more toxic; extreme values may be limits of the assay
Vero E6 [12] = assay: as above
HepG2 [13] = assay: as above
Caco-2 [14] = assay: as above
U2OS [15] = assay: as above

Structure (SMILES)	cell viability (Calu-3 [1]; 1 nM) [%]	cell viability (Calu-3 [1]; 10 nM) [%]	cell viability (Calu-3 [1]; 100 nM) [%]	cell viability (Calu-3 [1]; 1000 nM) [%]	cell viability (Calu-3 [1]; 10000 nM) [%]	cell viability (Vero E6 [2]; 1 nM) [%]	cell viability (Vero E6 [2]; 10 nM) [%]	cell viability (Vero E6 [2]; 100 nM) [%]	cell viability (Vero E6 [2]; 1000 nM) [%]	cell viability (Vero E6 [2]; 10000 nM) [%]	cell viability (HepG2 [3]; 1 nM) [%]	cell viability (HepG2 [3]; 10 nM) [%]	cell viability (HepG2 [3]; 100 nM) [%]	cell viability (HepG2 [3]; 1000 nM) [%]	cell viability (HepG2 [3]; 10000 nM) [%]	cell viability (Caco-2 [4]; 1 nM) [%]	cell viability (Caco-2 [4]; 10 nM) [%]	cell viability (Caco-2 [4]; 100 nM) [%]	cell viability (Caco-2 [4]; 1000 nM) [%]	cell viability (Caco-2 [4]; 10000 nM) [%]	cell viability (U2OS [5]; 1 nM) [%]	cell viability (U2OS [5]; 10 nM) [%]	cell viability (U2OS [5]; 100 nM) [%]	cell viability (U2OS [5]; 1000 nM) [%]	cell viability (U2OS [5]; 10000 nM) [%]	relative viability EC50 (Calu-3 [6]) [µM]	relative viability EC50 (Vero E6 [7]) [µM]	relative viability EC50 (HepG2 [8]) [µM]	relative viability EC50 (Caco-2 [9]) [µM]	relative viability EC50 (U2OS [10]) [µM]	drug sensitivity score (Calu-3 [11])	drug sensitivity score (Vero E6 [12])	drug sensitivity score (HepG2 [13])	drug sensitivity score (Caco-2 [14])	drug sensitivity score (U2OS [15])
CCCCCCCCN=c1ccn(CCCCCCCCCCn2ccc(=NCCCCCCCC)cc2)cc1 [octenidine]	106	101	98.6	98.6	0.7	96.8	94.7	92.5	83.7	0.1	89.6	93.4	102	65.6	2.6	98.7	97.5	101	78	1	95.5	104	95.4	89.9	2.7	3.07	1.91	1.27	1.65	2.31	5.7	8.2	10.2	8.9	7
COC(=O)N1CCN(Cc2cccc(NC(=O)Nc3ccc(C)nc3)c2F)CC1 [omecamtiv-mecarbil]	92.4	94.4	107	97.4	99.9	105	100	104	101	99.1	105	96.1	100	98.5	97.1	93	89.7	95.3	96.3	87	97	101	93.3	99	97.4	> 10	> 10	> 10	> 10	> 10	0	0	0	0	0
COc1ccc2[nH]c([S+]([O-])Cc3ncc(C)c(OC)c3C)nc2c1 (stereo not given) [omeprazole-magnesium]	93.3	104	98.7	95.5	98.9	102	105	96.2	96.3	110	87.7	98.4	86.3	99.7	95.1	90.7	72.4	100	97.4	107	96.6	97.3	102	94.3	96	> 10	> 10	> 10	> 10	> 10	0	0	0	0	0
COc1ccc2[nH]c([S+]([O-])Cc3ncc(C)c(OC)c3C)nc2c1 (stereo not given) [omeprazole]	115	94.3	103	104	113	98.5	106	102	107	103	102	96.6	99.4	99.5	97	104	92.2	103	99	95	106	98.4	101	104	98.6	> 10	> 10	> 10	> 10	> 10	0	0	0	0	0
Cc1[nH]c(/C=C2\C(=O)Nc3ccccc32)c(C)c1CCC(=O)O [orantinib]	98.8	104	107	106	99.2	107	103	103	96.2	98.1	98.3	103	106	98.7	100	101	96.9	102	104	97.5	98.1	94.3	101	99.1	98.4	> 10	> 10	> 10	> 10	> 10	0	0	0	0	0
Cc1nc2n(c(=O)c1CCN1CCC(c3noc4cc(F)ccc34)CC1)CCCC2O (stereo not given) [paliperidone]	104	104	93.2	100	102	113	106	109	103	92.4	107	104	108	95	100	93.6	106	90.7	104	118	99.5	103	97	101	99.9	> 10	> 10	> 10	> 10	> 10	0	0	0	0	0
Cc1cccc(Nc2cc(Cl)nc(SCC(=O)O)n2)c1C [pirinixic-acid]	99.9	102	93.7	114	97.4	100	95.3	98.8	95.9	100	98.8	99.4	94.8	99.2	101	90	95.2	98.8	98.1	87.2	103	104	95.7	102	97.1	> 10	> 10	> 10	> 10	> 10	0	0	0	0	0
CC(C)(C)C(=O)NCCCC(=O)O [pivagabine]	101	110	98.3	99.1	106	95.1	99.2	96.4	98.3	91.7	99	111	98.5	106	108	92.3	97.2	88.8	95.9	92.2	101	105	98.4	101	102	> 10	> 10	> 10	> 10	> 10	0	0	0	0	0
CC(C(=O)O)c1ccc2c(c1)Cc1cccnc1O2 (stereo not given) [pranoprofen]	97.5	92.9	97.1	100	108	96.2	96.5	98.4	100	105	95.8	103	94.1	104	111	88.3	86.7	89.5	95.3	102	104	99.1	95.2	104	106	> 10	> 10	> 10	> 10	> 10	0	0	0	0	0
CC(=O)[C@H]1CC[C@H]2[C@@H]3CCC4=CC(=O)CC[C@]4(C)[C@H]3CC[C@]12C [progesterone]	95	98.4	87.2	94.5	92	92	108	91.3	96.8	110	102	99.9	102	96.4	95.6	97.4	98.8	98.4	87.2	82.9	100	98	101	100	96.8	> 10	> 10	> 10	> 10	> 10	0	0	0	1.3	0
COc1ccccc1OCC(O)CN1CCN(CC(=O)Nc2c(C)cccc2C)CC1 (stereo not given) [ranolazine]	95	91.8	102	105	105	90.5	97.3	89.5	90.7	104	97.5	97.9	93	96.7	102	100	96.9	106	99.2	99.1	98.6	93.4	102	96.1	102	> 10	> 10	> 10	> 10	> 10	0	0	0	0	0
CCOc1ccccc1OC(c1ccccc1)C1CNCCO1 (stereo not given) [reboxetine]	107	96.5	99.4	104	94.3	102	102	102	98.4	95.6	105	121	95.5	106	102	104	97.9	97.1	104	104	101	101	98.8	101	104	> 10	> 10	> 10	> 10	> 10	0	0	0	0	0
O=C(Nc1c(Cl)cncc1Cl)c1ccc(OC(F)F)c(OCC2CC2)c1 [roflumilast]	89.1	107	94.2	93.8	98.6	101	91.2	99.3	102	103	106	96.9	101	101	128	104	101	97.3	100	101	96.4	98.5	94.2	94.8	99.5	> 10	> 10	> 10	> 10	> 10	0	0	0	0	0
C[C@@H]1O[C@@H](OC[C@H]2O[C@@H](Oc3c(-c4ccc(O)c(O)c4)oc4cc(O)cc(O)c4c3=O)[C@H](O)[C@@H](O)[C@@H]2O)[C@H](O)[C@H](O)[C@H]1O [rutin]	107	90.4	102	85.9	101	98.6	100	98.8	111	104	104	101	86	106	98.1	118	98.9	115	101	113	101	107	96.1	98.5	102	> 10	> 10	> 10	> 10	> 10	0	0	0	0	0
